The source of these data is patent US5614534A, “Derivatives of β, β-dimethyl-4-piperidineethanamine as inhibitors of the cholesterol biosynthesis” (Fournier Industrie et Sante, priority 1993, dated 1997).

One may read the inhibition as how much of the control response was suppressed.

In this assay the target is T1, epoxysqualene cyclase (Rattus norvegicus, UniProt P48450).
T1 construct: Rat hepatic microsomes were used as the source of the enzyme; from tissue; host or cells: liver microsomes of male Wistar rats
T1 sequence (P48450 1-733): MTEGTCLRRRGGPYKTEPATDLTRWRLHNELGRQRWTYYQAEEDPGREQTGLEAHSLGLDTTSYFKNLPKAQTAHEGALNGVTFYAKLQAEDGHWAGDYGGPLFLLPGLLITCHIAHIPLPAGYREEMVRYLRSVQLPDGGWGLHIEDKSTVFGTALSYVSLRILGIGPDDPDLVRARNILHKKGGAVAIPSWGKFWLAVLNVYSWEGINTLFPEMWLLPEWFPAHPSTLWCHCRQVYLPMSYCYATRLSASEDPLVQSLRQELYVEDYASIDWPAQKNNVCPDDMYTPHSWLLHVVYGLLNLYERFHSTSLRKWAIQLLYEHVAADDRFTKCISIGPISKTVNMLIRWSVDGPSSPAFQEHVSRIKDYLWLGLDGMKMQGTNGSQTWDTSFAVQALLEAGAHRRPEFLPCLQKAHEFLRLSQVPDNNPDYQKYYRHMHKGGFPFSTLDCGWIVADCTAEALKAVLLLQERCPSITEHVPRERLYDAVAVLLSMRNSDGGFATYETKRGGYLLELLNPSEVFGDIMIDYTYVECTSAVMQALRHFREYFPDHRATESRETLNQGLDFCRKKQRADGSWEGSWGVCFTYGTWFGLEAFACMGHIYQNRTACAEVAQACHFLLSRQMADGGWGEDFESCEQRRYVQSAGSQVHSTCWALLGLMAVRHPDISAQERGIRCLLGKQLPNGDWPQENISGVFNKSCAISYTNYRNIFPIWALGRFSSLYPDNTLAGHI
The assay is described as follows: inhibition of epoxysqualene cyclase in rat hepatic microsomes (lanosterol formed from (R,S)-2,3-oxydosqualene). The format is biochemical, male Wistar rats. The settings on record: 25.10^-6 moles per liter of tested product; 150 μM (R,S)-2,3-oxydosqualene, 60 minutes at 37° C., pH=7.4; read-out: Inhibition percentage (of the quantity of lanosterol formed). The procedure: The activity of the Compounds of the invention was evaluated by the observation of an inhibiting effect on epoxysqualene cyclase in the hepatic microsomes of male Wistar rats.
The method consisted of measuring the lanosterol formed from R,S-2,3-oxydosqualene by the microsomal enzyme. The enzyme was prepared using the method described by G. C. Ness (G. C. Ness et. al., Biochem. J., (1986), 233, 167-172).
Method for Measuring the Activity of Epoxysqualene Cyclase
Rat hepatic microsomes were used as the source of the enzyme. The method consisted in measuring the lanosterol formed from (R,S)-2,3-oxydosqualene.The (R,S)-2,3-oxydosqualene, the products to be tested and TWEEN® 80 in organic solution (2-propanone or sulphinyl bis-methane) (25 μl) were placed in test tubes and 400 μl of potassium buffer (0.1M, pH=7.4) was added. The reaction was initiated by adding 100 μl of the microsomes. In a final reaction volume of 525 μl, the mixture contained 150 μM of (R,S)-2,3-oxydosqualene, 0.1% of TWEEN® 80 (to dissolve the (R,S)-2,3-oxydosqualene) and 250 μg of microsomal proteins. The reaction time was 60 minutes at 37° C. The reaction was stopped by addition of 300 μl of methanolic potassium hydroxide (7%) and 20 μg of stigmasterol as an internal standard. After saponification at 80° C. for 30 minutes and stirring using a rotary stirrer, the sterols were extracted with 2 ml of hexane. The lanosterol formed was separated from the (R,S)-2,3-oxydosqualene, the membranal cholesterol and the stigmasterol by gas phase chromatography after transformation to the trimethylsilyl ethers. Derivatisation of the sterols was carried out at 60° C. for 30 minutes after addition of 25 μl of pyridine and 75 μl of the trimethylsilyl ester of 2,2,2-trifluoro-N-trimethylsily-ethanimidic acid containing 1% of trimethylchlorosilane ethers.
After evaporation, the trimethylsilyl ethers were taken up into solution in 100 μl of hexane. An aliquot of this solution (2 μl) was gas chromatographed on a OV1 capillary column (0.32 mm, 25 m) under the following conditions: injection temperature=270° C., furnace temperature=260° C., detector temperature=300° C.; the vector gas was nitrogen at a pressure of 7.10^4 Pa.
The potency of the molecules tested was expressed as the percentage inhibition of the quantity of lanosterol formed for a concentration of 25.10^-6 moles per liter of product tested.
As to `CC(C)=CCN1CCC(C(C)(C)CN(C)C)CC1` [Example 14, 1-(3,3-dimethylpropen-2-yl)-N,N,β,β-tetramethyl-4-piperidineethanamine], the inhibition was 48%.

Consider `CCCCCCCCCCCCN1CCC(C(C)(C)CNC(C)=O)CC1` [Example 11, N-[2-methyl-2-[(1-dodecyl)-4-piperidinyl]propyl]-N-acetamide], for which the inhibition is 58%.

As for `CCOC(=O)CCCN1CCC(C(C)(C)CN(C)C)CC1` [Example 25], the inhibition is 81%.

As for `CC(C)CCCNC(=O)CCCN1CCC(C(C)(C)CN(C)C)CC1` [Example 26, N-(4-methylpentyl)-4-[2-(1-dimethylamino-2-methyl)propyl]-1-piperidinebutanamide], the inhibition is 100%.

Turning to `CN(C)CC(C)(C)C1CCN(CC=Cc2ccccc2)CC1` [Example 31, 1-(3-phenylpropenyl)-N,N,β,β-tetramethyl-4-piperidineethanamine], the inhibition was found to be 99%.

Turning to `CN(C)CC(C)(C)C1CCN(C(=O)C=Cc2ccccc2)CC1` [Example 28, 1-(3-phenylpropenoyl)-N,N,β,β-tetramethyl-4-piperidineethanamine], the inhibition came out at 87%.

As to `CN(C)CC(C)(C)C1CCN(CC(C)(C)Oc2ccc(Cl)cc2)CC1` [Example 30, 1-[2-(4-chlorophenoxy)-2,2-dimethyl-ethyl]-N,N,β,β-tetramethyl-4-piperidineethanamine], the inhibition turned out to be 92%.

Take `CN(C)CC(C)(C)C1CCN(C(=O)CCCCCCCCCCn2ccnc2)CC1` [Example 20, 1-[(11-imidazolyl)undecanoyl]-N,N,β,β-tetramethyl-4-piperidineethanamine]: the inhibition is 100%.

Turning to `CCCCCCCCCCCCN1CCC(C(C)(C)CN)CC1` [Example 1, 1-dodecyl-β,β-dimethyl-4-piperidineethanamine], the inhibition worked out at 75%.

`CN(C)CC(C)(C)C1CCN(CCCCCC(C)(C)C)CC1` [Example 17, 1-(6,6-dimethyl-heptyl)-N,N,β,β-tetramethyl-4-piperidineethanamine]: the inhibition came out at 100%.

With `CC(Cc1ccc(C(C)C)cc1)CN1CCC(C(C)(C)CN(C)C)CC1` (stereo not drawn) [Example 18, 1-[3-[4-(methylethyl)phenyl]-2-methyl-propyl]-N,N,β,β-tetramethyl-4-piperidineethanamine], the inhibition came out at 100%.

As to `CCCCCCCCCCCCN1CCC(C(C)(C)CN2CCCCC2)CC1` [Example 15, 1-[[2-[4-(1-dodecylpiperidinyl)]-2-methyl]propyl]piperidine], the inhibition stood at 40%.

For the molecule `CN(C)CC(C)(C)C1CCN(C/C=C/C#CC(C)(C)C)CC1` [Example 16, (E)-1-(6,6-dimethyl-2-hepten-4-yn-1-yl)-N,N,β,β-tetramethyl-4-piperidineethanamine], the inhibition is 100%.

As for `CCCCCCCCCCCCN1CCC(C(C)(C)CNCC)CC1` [Example 9, 1-dodecyl-N-ethyl,β,β-dimethyl-4-piperidineethanamine], the inhibition came to 96%.

Consider `CC(C)CCCC(=O)NCCCN1CCC(C(C)(C)CN(C)C)CC1` [Example 24, N-[[4-[2-(1-dimethylamino-2-methyl)propyl]-1-piperidinyl]-1-propyl]-5-methylhexanamide], for which the inhibition turned out to be 93%.

For the molecule `CCCCCCCCCCCC(=O)N1CCC(C(C)(C)C[N+](C)(C)C)CC1` [Example 27, 1-[(1-undecyl)carbonyl]-N,N,N,β,β-pentamethyl-4-piperidinethanaminium Iodide], the inhibition came to 100%.

`CC(C)Cc1ccc(C(C)CN2CCC(C(C)(C)CN(C)C)CC2)cc1` (stereo not drawn) [Example 32, 1-[2-[4-(2-methylpropyl)phenyl]-2-methylethyl]-N,N,β,β-tetramethyl-4-piperidineethanamine]: the inhibition was found to be 95%.

Turning to `CN(C)CC(C)(C)C1CCN(C(=O)C(C)(C)Oc2ccc(Cl)cc2)CC1` [Example 29, 1-[2-(4-chlorophenoxy)-2,2-dimethyl-ethanoyl]-N,N,β,β-tetramethyl-4-piperidineethanamine], the inhibition amounted to 95%.

Consider `C=CCN1CCC(C(C)(C)CN(C)C)CC1` [Example 13, 1-(2-propenyl)-N,N,β,β-tetramethyl-4-piperidineethanamine], for which the inhibition was found to be 64%.

On to `CCCCCCCCCCCCN1CCC(C(C)(C)CN(C)C)CC1` [Example 2, 1-dodecyl-N,N,β,β-tetramethyl-4-piperidineethanamine], for which the inhibition was found to be 97%.

For `CN(C)CC(C)(C)C1CCN(CCCCCCCCCCCn2ccnc2)CC1` [Example 21, 1-[(11-imidazolyl)undecyl]-N,N,β,β-tetramethyl-4-piperidineethanamine], the inhibition worked out at 100%.

With `CCCCCCCCCCC(=O)N1CCC(C(C)(C)CN(C)C)CC1` [Example 19, 1-undecanoyl-N,N,β,β-tetramethyl-4-piperidineethanamine], the inhibition came out at 100%.

Take `CCCCCCCCCCCCN1CCC(C(C)(C)CN(C)C(C)=O)CC1` [Example 10, N-methyl-N-[2-methyl-2-[(1-dodecyl)-4-piperidinyl]propyl]acetamide]: the inhibition amounted to 66%.

Consider `CCCCCCCCCCCCN1CCC(C(C)(C)CN(CC)CC)CC1` [Example 4, 1-dodecyl-N,N-diethyl,β,β-dimethyl-4-piperidineethanamine], for which the inhibition stood at 63%.
